Converted amounts (≈) assume the structure as drawn.
Columns and labels:
Klebsiella oxytoca = assay: Antibiotic sensitivity (MIC) of Klebsiella oxytoca isolated from sputum, Example 2; assay type: cell-based; conditions: for Interps / MIC: Klebsiella oxytoca isolate from experimental sputum sample
S. aureus [1] = assay: Antibiotic sensitivity (MIC) of 5/14 sputum culture isolate, Example 4; assay type: cell-based, Staphylococcus aureus; conditions: 5/14 Sputum cx
Text: (§1) The original culture taken on 5/5 (finalized on 5/7) was identical to a subsequent culture taken on 5/14 that only grew MRSA.

S. aureus [2] = assay: Antibiotic sensitivity (MIC) of S. aureus grown from bone incubated in the transport system, Example 3; assay type: cell-based, Staphylococcus aureus; conditions: for MIC: unit assumed
Procedure: FIG. 5L illustrates another view of the cultures. […] The sample was incubated for 24 hours at 37 degrees Celsius. […] While not being bound to a specific theory, the native bone may sequester sessile infection in biofilms, especially in relatively devitalized bone associated with vasculopathy. Incubation in mucolytic allows for breakdown of the biofilm and the glycerol broth allows for a nutritive environment to coax these recalcitrant organisms into a cultivable state.

MRSA [3] = assay: Antibiotic sensitivity (MIC) of 5/5 sputum culture isolate, Example 4; assay type: cell-based, Staphylococcus aureus; conditions: 5/5 Sputum cx, Positive for MRSA
Text: (§2) FIG. 5M illustrates the use of systems and methods to isolate MRSA in sputum allowing for faster initiation of anti-MRSA therapy and clinical cure. This patient was intubated for hypoxemia and pneumonia. The patient placed on ceftriaxone and azithromycin. The systems and methods allowed identification of MRSA in the patient's sputum.
as §1

Staphylococcus aureus = assay: Antibiotic sensitivity (MIC) of original blood culture isolate, Example 3; assay type: cell-based; conditions: Rare Colonies Staphylococcus aureus
Procedure: While not being bound to a specific theory, the native bone may sequester sessile infection in biofilms, especially in relatively devitalized bone associated with vasculopathy. Incubation in mucolytic allows for breakdown of the biofilm and the glycerol broth allows for a nutritive environment to coax these recalcitrant organisms into a cultivable state.

S. Pneumoniae = assay: Antibiotic sensitivity pattern (MIC) of S. pneumoniae isolated from sputum, Example 1; assay type: cell-based, Streptococcus pneumoniae; conditions: for Interpretation / MIC: S. pneumoniae isolate from experimental sputum sample; for MIC: unit assumed
Text: FIG. 5E illustrates the mucoid alpha Streptococcus only on the experimental sample is Streptococcus pneumonia. Streptococcus pneumoniae not isolated using standard methods.
The patient had invasive pneumococcal disease as noted by a positive Streptococcus pneumoniae urine antigen result. This sample is most impressive in that the systems and methods described herein allowed isolation of Streptococcus pneumoniae despite the patient being on ceftriaxone for two days at the time of collection. The isolate is sensitive to ceftriaxone according to the sensitivity pattern. S in the Interpretation column of the tables below indicates sensitivity, and R indicates resistance.

MRSA [4] = assay: Clinical course of intubated patient with MRSA in sputum, Example 4; assay type: in vivo, human; conditions: one patient, MRSA pneumonia, on ventilator
Text: as §2
FIG. 5N illustrates the yellow colony in the experimental site is obvious. The patient decompensated clinically to the point of near death until proper MRSA antibiotic therapy was initiated. Hypoxemia worsened and oxygen requirements increased prior to MRSA therapy.

[5] = 05 S. aureus, bone incubated 24 hours at 37 degrees Celsius

Row | Compound | Interps (Klebsiella oxytoca) | MIC (Klebsiella oxytoca) [µg/mL] | Interps (S. aureus [1]) | MIC (S. aureus [1]) [µg/mL] | MIC (S. aureus [2]; [5]) [µg/mL] | Interps (MRSA [3]) | MIC (MRSA [3]) [µg/mL] | Interps (Staphylococcus aureus) | MIC (Staphylococcus aureus) [µg/mL] | further results
1 | NCC[C@H](O)C(=O)N[C@@H]1C[C@H](N)[C@@H](O[C@H]2O[C@H](CN)[C@@H](O)[C@H](O)[C@H]2O)[C@H](O)[C@H]1O[C@H]1O[C@H](CO)[C@@H](O)[C@H](N)[C@H]1O [Amikacin] | S | ≤ 16 | – | – | – | – | – | – | – | –
2 | CC1(C)S[C@@H]2[C@H](NC(=O)[C@H](N)c3ccccc3)C(=O)N2[C@H]1C(=O)O [Ampicillin] | R | > 16 | – | – | – | – | – | – | – | –
3 | Cc1nnc(SCC2=C(C(=O)O)N3C(=O)[C@@H](NC(=O)Cn4cnnn4)[C@H]3SC2)s1 [Cefazolin] | R | 8 (≈ 17.6 µM) | R | 16 (≈ 35.2 µM) | ≤ 4 | R | 8 (≈ 17.6 µM) | S | ≤ 4 | Interps (S. aureus [2]; [5]): S
4 | CO/N=C(\C(=O)N[C@@H]1C(=O)N2C(C(=O)[O-])=C(C[N+]3(C)CCCC3)CS[C@H]12)c1csc(N)n1 [Cefepime] | S | ≤ 2 | – | – | – | – | – | – | – | –
5 | CO/N=C(\C(=O)N[C@@H]1C(=O)N2C(C(=O)O)=C(COC(C)=O)CS[C@H]12)c1csc(N)n1 [Cefotaxime] | S | ≤ 2 | – | – | – | – | – | – | – | –
6 | CO[C@@]1(NC(=O)Cc2cccs2)C(=O)N2C(C(=O)O)=C(COC(N)=O)CS[C@@H]21 [Cefoxitin] | S | ≤ 8 | – | – | – | – | – | – | – | –
7 | CO/N=C(\C(=O)N[C@@H]1C(=O)N2C(C(=O)O)=C(CSc3nc(=O)c(=O)[nH]n3C)CS[C@H]12)c1csc(N)n1 [Ceftriaxone] | S | ≤ 1 | – | – | – | – | – | – | – | sensitivity of the organism (Klebsiella oxytoca): sensitive; sensitivity of the isolate according to the sensitivity pattern (S. Pneumoniae): sensitive; Interpretation (S. Pneumoniae): S; MIC (S. Pneumoniae): ≤ 0.25 µg/mL
8 | O=C(O)c1cn(C2CC2)c2cc(N3CCNCC3)c(F)cc2c1=O [Ciprofloxacin] | S | ≤ 1 | – | – | – | – | – | – | – | –
9 | CCC[C@@H]1C[C@@H](C(=O)N[C@@H]([C@H]2O[C@H](SC)[C@H](O)[C@@H](O)[C@H]2O)[C@H](C)Cl)N(C)C1 [Clindamycin] | – | – | R | > 4 | ≤ 0.25 | R | > 4 | S | ≤ 0.25 | Interps (S. aureus [2]; [5]): S; Interpretation (S. Pneumoniae): R; MIC (S. Pneumoniae): > 0.5 µg/mL
10 | CCCCCCCCCC(=O)N[C@@H](Cc1c[nH]c2ccccc12)C(=O)N[C@H](CC(N)=O)C(=O)N[C@@H](CC(=O)O)C(=O)N[C@@H]1C(=O)NCC(=O)N[C@@H](CCCN)C(=O)N[C@@H](CC(=O)O)C(=O)N[C@H](C)C(=O)N[C@@H](CC(=O)O)C(=O)NCC(=O)N[C@H](CO)C(=O)N[C@@H]([C@H](C)CC(=O)O)C(=O)N[C@@H](CC(=O)c2ccccc2N)C(=O)O[C@@H]1C [Daptomycin] | – | – | – | – | 0.5 (≈ 0.309 µM) | – | – | S | 0.5 (≈ 0.309 µM) | Interps (S. aureus [2]; [5]): S
11 | CC[C@H]1OC(=O)[C@H](C)[C@@H](O[C@H]2C[C@@](C)(OC)[C@@H](O)[C@H](C)O2)[C@H](C)[C@@H](O[C@@H]2O[C@H](C)C[C@H](N(C)C)[C@H]2O)[C@](C)(O)C[C@@H](C)C(=O)[C@H](C)[C@@H](O)[C@]1(C)O [Erythromycin] | – | – | – | – | – | – | – | – | – | Interpretation (S. Pneumoniae): R; MIC (S. Pneumoniae): > 0.5 µg/mL
12 | C[C@@H](O)[C@H]1C(=O)N2C(C(=O)O)=C(SCCN=CN)C[C@H]12 [Imipenem] | S | ≤ 0.5 | – | – | – | – | – | – | – | –
13 | C[C@H]1COc2c(N3CCN(C)CC3)c(F)cc3c(=O)c(C(=O)O)cn1c23 [Levofloxacin] | S | ≤ 0.25 | – | – | – | – | – | – | – | Interpretation (S. Pneumoniae): S; MIC (S. Pneumoniae): 1 µg/mL (≈ 2.77 µM)
14 | CC(=O)NC[C@H]1CN(c2ccc(N3CCOCC3)c(F)c2)C(=O)O1 [Linezolid] | – | – | S | 2 (≈ 5.93 µM) | 2 (≈ 5.93 µM) | S | 2 (≈ 5.93 µM) | S | 2 (≈ 5.93 µM) | clinical outcome of therapy (MRSA [4]): allowed the patient to come off the ventilator; Interps (S. aureus [2]; 24 h): S
15 | C[C@@H](O)[C@H]1C(=O)N2C(C(=O)O)=C(S[C@@H]3CN[C@H](C(=O)N(C)C)C3)[C@H](C)[C@H]12 [Meropenem] | S | ≤ 1 | – | – | – | – | – | – | – | –
16 | Cc1onc(-c2ccccc2)c1C(=O)N[C@@H]1C(=O)N2[C@@H]1SC(C)(C)[C@@H]2C(=O)O [Oxacillin] | – | – | R | > 2 | ≤ 0.25 | R | > 2 | S | ≤ 0.25 | Interps (S. aureus [2]; 24 h): S
17 | CO[C@H]1/C=C/O[C@@]2(C)Oc3c(C)c(O)c4c(O)c(c(/C=N/N5CCN(C)CC5)c(O)c4c3C2=O)NC(=O)/C(C)=C\C=C\[C@H](C)[C@H](O)[C@@H](C)[C@@H](O)[C@@H](C)[C@H](OC(C)=O)[C@@H]1C [Rifampin] | – | – | S | ≤ 1 | ≤ 1 | S | ≤ 1 | – | – | Interps (S. aureus [2]; 24 h): S
18 | CN(C)[C@@H]1C(O)=C(C(N)=O)C(=O)[C@@]2(O)C(O)=C3C(=O)c4c(O)cccc4[C@@](C)(O)[C@H]3C[C@@H]12 [Tetracycline] | S | ≤ 4 | S | ≤ 1 | – | S | ≤ 1 | R | – | Interps (S. aureus [2]; [5]): R
19 | NC[C@H]1O[C@H](O[C@H]2[C@H](O)[C@@H](O[C@H]3O[C@H](CO)[C@@H](O)[C@H](N)[C@H]3O)[C@H](N)C[C@@H]2N)[C@H](N)C[C@@H]1O [Tobramycin] | S | ≤ 1 | – | – | – | – | – | – | – | –
20 | CN[C@H](CC(C)C)C(=O)N[C@H]1C(=O)N[C@@H](CC(N)=O)C(=O)N[C@H]2C(=O)N[C@H]3C(=O)N[C@H](C(=O)N[C@H](C(=O)O)c4cc(O)cc(O)c4-c4cc3ccc4O)[C@H](O)c3ccc(c(Cl)c3)Oc3cc2cc(c3O[C@@H]2O[C@H](CO)[C@@H](O)[C@H](O)[C@H]2O[C@H]2C[C@](C)(N)[C@H](O)[C@H](C)O2)Oc2ccc(cc2Cl)[C@H]1O [Vancomycin] | – | – | S | 2 (≈ 1.38 µM) | 1 (≈ 0.69 µM) | S | 2 (≈ 1.38 µM) | S | 1 (≈ 0.69 µM) | clinical outcome of therapy (MRSA [4]): allowed the patient to come off the ventilator; Interps (S. aureus [2]; [5]): S; Interpretation (S. Pneumoniae): S; MIC (S. Pneumoniae): 0.25 µg/mL (≈ 0.173 µM)
21 | CC[C@H]1OC(=O)[C@H](C)[C@@H](O[C@H]2C[C@@](C)(OC)[C@@H](O)[C@H](C)O2)[C@H](C)[C@@H](O[C@@H]2O[C@H](C)C[C@H](N(C)C)[C@H]2O)[C@](C)(O)C[C@@H](C)CN(C)[C@H](C)[C@@H](O)[C@]1(C)O [azithromycin] | – | – | – | – | – | – | – | – | – | macrolide resistance of the isolate (S. Pneumoniae; inferred from macrolide resistance): resistant
22 | Gentamicin | S | ≤ 1 | S | ≤ 1 | ≤ 1 | S | ≤ 1 | S | ≤ 1 | Interps (S. aureus [2]; [5]): S
23 | Penicillin | – | – | – | – | – | – | – | – | – | Interpretation (S. Pneumoniae): S; MIC (S. Pneumoniae): ≤ 0.03 µg/mL

Reference: US12312579B2, “Method for culturing H. pylori for future testing” (BioSherpa, LLC, priority 2019, dated 2025)
